Assay results from PMC5150241, “Antimicrobial mechanism of theaflavins: They target 1-deoxy-D-xylulose 5-phosphate reductoisomerase, the key enzyme of the MEP terpenoid biosynthetic pathway” (Scientific Reports, 2016).
Where two headings read alike, the source gives them in different places.

Key:
[1] = Particle size analysis by dynamic light scattering (DLS); assay type: physicochemical; settings: 50 mM Tris-HCl pH 7.4, 2 mM VC, 2% DMSO; for DLS Count Rate, with 4 μg/mL DXR / DLS Count Rate, without DXR: conc: TF 500, TF3G 100, TF3′G 100, TF3,3′G 70, baicalein 200 μM
Procedure: DLS is a widely utilized technique in materials science to measure particle sizes in solutions[20][21]. […] Baicalein was referenced as a positive control owing to the same reason as mentioned above. The particle size evaluation was performed by a DLS analyzer and the results display that except for baicalein, the theaflavins produce no detectable particles.
The particle size of the theaflavin compounds and baicalein in Tris-HCl buffer (50 mM, pH 7.4) containing 2 mM VC and 2.0% DMSO (V/V) was measured in the absence and presence of DXR (final concentration: 4 μg/mL) on a DLS analyzer (NICOMP-380, Particle Sizing Systems, Inc., Santa Barbara, Calif., USA). The detector time was set to 10 min. […] A solution of 2.0% aqueous DMSO was used as a reference.

E. coli DXR [2] = biological target: T1, E. coli DXR (Escherichia coli, UniProt P45568); experiment: DXR inhibition assay, pre-column derivatization HPLC method; assay type: biochemical; settings: for Inhibition (%) Triton, lower concentration / Inhibition (%) Triton, higher concentration: 0.01% Triton X-100; for Inhibition (%) Triton, lower concentration / Inhibition (%) No Triton, lower concentration: conc: TF 150, TF3G 30, TF3′G 20, TF3,3′G 15, baicalein 50 μM; for Inhibition (%) Triton, higher concentration / Inhibition (%) No Triton, higher concentration: conc: TF 250, TF3G 50, TF3′G 40, TF3,3′G 30, baicalein 100 μM; for IC50: 2 mM VC, 0.5 mM NADPH, 1 mM DXP, 37 °C, 30 min, read-out: IC50 against DXR; for Inhibition (%) No Triton, lower concentration / Inhibition (%) No Triton, higher concentration: no Triton X-100
T1 construct: made in house
Procedure: Then, we evaluated the DXR inhibitory activity of all four theaflavins at a final concentration of approximately 150 μM, employing 2% DMSO as a co-solvent and VC as a protective agent. […] Encouraged by these experiments, we further determined the DXR inhibitory effects of the theaflavins at different concentrations.
We therefore determined the DXR inhibitory activity of the theaflavins using 0.01% Triton X-100 as a surfactant to verify whether the theaflavins were aggregating inhibitors of DXR. Exactly the same procedure as described in the experimental part was followed to carry out the measurements. […] Then, we set two distinct concentrations for each of the theaflavins to evaluate its inhibition against DXR, one was close to its IC50 value and the other was about twice of it.
The inhibitory activity of the theaflavins and baicalein against E. coli DXR was determined using the pre-column derivatization HPLC method published by this group with minor modifications[29]. The assay mixture consists of 50 mM Tris-HCl (pH 7.4), 5 mM MgCl2, 2 mM VC, 0.5 mM NADPH, 2% (W/V) DMSO or 0.01% Triton X-100, and 4 μg/mL DXR in a final volume of 100 μL. The theaflavin compounds or baicalein were added to the mixtures separately before the addition of DXP (final conc. 1 mM) to start the reaction. […] The reaction mixture was incubated at 37 °C for 30 min before the DXR was inactivated by boiling for 3 minutes. Subsequently, 10 μL AP buffer (1 M Tris-HCl, 1 M NaCl2 50 mM MgCl2, pH 9.5) and 2 U AP were added, and the mixture was incubated at 37 °C for 120 min. 10 μL DNPH (120 mM in 30% perchloric acid, V/V) and 280 μL methanol were supplemented. After incubated at 37 °C for another 45 min, the mixture was centrifuged at 6000 rpm for 3 min and the supernatant was used for HPLC analysis on the Agilent 1200 HPLC system. HPLC conditions: Column, Shim-pack VP-ODS column (250 × 4.6 mm, 4.6 μm). Injection volume: 60 μL. Gradient: 0 min, 40% acetonitrile; 17 min, 80% acetonitrile; 18–20 min, 40% acetonitrile. Detection wavelength: 360 nm. Flow rate: 0.7 mL/min. Column temperature: 30 °C.

[3] = set-up: method as in earlier work; settings: cited from earlier work
Plasmodium falciparum = settings: malaria caused by Plasmodium falciparum; cited from earlier work
[4] = Stability of the theaflavins under the DXR assay conditions (HPLC); assay type: physicochemical; settings: 100 μM before incubation, 50 mM Tris-HCl pH 7.4, 37 °C, 35 min; for Concentration after incubation in the absence of 2 mM VC: no VC
Procedure: The theaflavins are unstable compounds, especially under a basic condition. Because the DXR inhibition assay needs to be carried out in 50 mM Tris-HCl buffer at pH 7.4 and incubated at 37 °C for 30 min, we have to test whether the theaflavins can survive the assay condition, although it is almost neutral. The compounds were actually incubated at 37 °C for 35 min, 5 min longer than that of the real DXR assay. The results, as depicted in Table 1, indicate that almost half of the theaflavins decomposed after incubation. That is to say that these compounds are unstable even under the weak basic condition. […] Thus VC (2 mM) was used to protect the theaflavins in the following assays.
Stability of the theaflavins in Tris-HCl buffer was evaluated using an Agilent 1200 HPLC equipped with a DAD detector. The theaflavins were separately diluted into 50 mM Tris-HCl buffer (pH 7.4) containing 5 mM MgCl2 and 2% (W/V) DMSO to a final concentration of 100 μM in the absence and presence of 2 mM VC. The mixtures were subsequently incubated at 37 °C for 35 min before they were centrifuged at 6000 rpm for 3 min and analyzed. HPLC conditions: Column, Shim-pack VP-ODS column (250 × 4.6 mm, 4.6 μm). Detection wavelength: 280 nm. Injection volume: 20 μL. The mobile phase consists of 60% solvent A [2% acetic acid in water (v/v)] and 40% solvent B (acetonitrile). Flow rate: 0.7 mL/min. Column temperature: 25 °C. […]
1. Stability of the theaflavins under the DXR assay conditions
In order to evaluate the stability of the theaflavins under the DXR assay conditions, each compound was diluted into 50 mM Tris-HCl buffer (pH 7.4) and incubated at 37 °C for 35 min in the absence and presence of 2 mM VC before they were determined by HPLC. The HPLC profiles were listed in Fig. S1. From the figure we are able to see that in the presence of 2 mM VC, the four theaflavin compounds are stable because the peak area of each compound remains almost unchanged after incubation (B). But they are unstable in the absence of VC because the peak areas of all four […]
(1 picture or pasted object on this page, not shown here)
Figure S1. The stabilitiy of the theaflavin compounds under DXR assay conditions. A. Mixtures of VC and individual theaflavins in 50 mM Tris-HCl buffer (pH 7.4) before incubation; B. Mixtures of VC and individual theaflavins in same buffer after incubated at 37 °C for 35 min; C. Individual theaflavins in same buffer after incubated at 37 °C for 35 min. In A and B. Line 1, TF (100 μM) plus VC (2 mM); Line 2, TF3G (100μM) plus VC (2 mM); Line 3, TF3’G (100μM) plus VC (2 mM); Line 4, TF3,3’G (100μM) plus VC (2 mM). In C. Line 1, TF (100 μM); Line 2, TF3G (100μM); Line 3, TF3’G (100μM); Line 4, TF3,3’G (100μM). HPLC conditions:
Column, Shim-pack VP-ODS column (250 × 4.6 mm, 4.6μm). Detection wavelength: 280 nm. The mobile phase consisted of 60% solvent A [2% acetic acid in water (v/v)] and 40% solvent B (acetonitrile). Flow rate:
0.7 mL/min. Column temperature: 25 °C. […]

E. coli DXR [5] = biological target: T1, E. coli DXR; experiment: Inhibition kinetics against DXR (Lineweaver-Burk plots); assay type: biochemical; settings: for Ki: 2 μg/mL DXR; for Kinetics (DXP): inhibition mode with respect to DXP; for Kinetics (NADPH): inhibition mode with respect to NADPH
Procedure: Lineweaver-Burk (LB) graphical charts were obtained by plotting the reciprocal of the reaction velocity against the reciprocal of the concentration of DXP/NADPH.
For A, the mixtures contained 1 mM DXP and NADPH (final conc. 0.05 to 0.275 mM); For B, the mixtures contained 0.5 mM NADPH and DXP (final conc. 0.075 to 0.3375 mM). The incubation was performed for 10 min at 37 °C before the reaction mixtures were hydrolyzed with AP, derivatized with DNPH, and analyzed using the HPLC method.
Lineweaver–Burk plots of DXR with respect to NADPH in the absence and presence of TF (A-1),
Assay mixtures comprised 50 mM tris-HCl (pH 7.4), 5 mM
MgCl2, 2 mM VC, the theaflavins (TF: 0, 2, 10, 20 μM; the other three compounds: 0, 1, 4, or 8 μM), 1 mM DXP and 2 μg/mL DXR in a final volume of 100 μL. Then, NADPH (final conc. 0.05 to 0.275 mM) was added, and incubation was performed for 10 min at 37 °C before the reaction mixtures were hydrolyzed with AP, derivatized with DNPH, and analyzed using the HPLC method. (A-1) DXR inhibition kinetics of TF; (A-2) DXR inhibition kinetics of TF3G; (A-3) DXR inhibition kinetics of TF3’G; (A-4) DXR inhibition kinetics of
Lineweaver–Burk plots of DXR with respect to DXP in the absence and presence of TF (B-1),
MgCl2, 2 mM VC, the theaflavins (TF: 0, 5, 10, 20 μM; the other three compounds: 0, 1, 4, or 8 μM), 0.5 mM NADPH, and 2 μg/mL. DXR in a final volume of 100 μL. Then, DXP (final conc. 0.075 to 0.3375 mM) was added, and incubation proceeded for 10 min at 37 °C before the reaction mixtures were hydrolyzed with AP, derivatized with DNPH, and analyzed using the HPLC method. (B-1) DXR inhibition kinetics of TF; (B-2) DXR inhibition kinetics of TF3G; (B-3) DXR inhibition kinetics of TF3’G; (B-4) DXR inhibition kinetics of

Calf intestine AP = biological target: T2, Calf intestine AP (Bos taurus, UniProt P19111); experiment: Alkaline phosphatase (AP) inhibition assay, HPLC method; assay type: biochemical; settings: 2 mM
T2 construct: purchased Takara (Dalian, China)
Procedure: The other factor that could influence the determination of inhibitory activity of the theaflavins against DXR would be the AP because we must use it to dephosphorylate DXP before DNPH derivatization. We thus measured whether VC and the theaflavins might display any inhibition against this enzyme. We find that VC has no effect on the activity of AP at 2 mM and the four theaflavins also have no inhibition against AP at all (Fig. 4), even at final concentrations as high as 500 μM.
Figure 4 Determination of inhibition of VC and the theaflavins against AP. The reaction mixtures comprise 10 μL AP buffer and 2 U AP in a final volume of 100 μL, DXP was added (final conc. 1 mM) to start the reaction. The reaction mixtures were incubated at 37 °C for 120 min and subsequently derivatized with DNPH and analyzed with the HPLC method. For VC assay, 2 mM VC was added before the addition of DXP. For assays of the theaflavins, the compounds were added separately before the addition of DXP (two concentrations, 20 and 500 μM for each compound were applied).
The HPLC method described above was also used to determine the inhibitory activity of the theaflavins against AP. The reaction mixture comprises 2 mM VC, 10 μL AP buffer and 2 U AP in a final volume of 100 μL. […] Then, the reaction mixture was derivatized with DNPH and analyzed with the HPLC method.

[6] = DXP as varied substrate, 0.5 mM NADPH, read-out: Ki (DXP)
[7] = NADPH as varied substrate, 1 mM DXP, read-out: Ki (NADPH)

T1 sequence (P45568 whole entry): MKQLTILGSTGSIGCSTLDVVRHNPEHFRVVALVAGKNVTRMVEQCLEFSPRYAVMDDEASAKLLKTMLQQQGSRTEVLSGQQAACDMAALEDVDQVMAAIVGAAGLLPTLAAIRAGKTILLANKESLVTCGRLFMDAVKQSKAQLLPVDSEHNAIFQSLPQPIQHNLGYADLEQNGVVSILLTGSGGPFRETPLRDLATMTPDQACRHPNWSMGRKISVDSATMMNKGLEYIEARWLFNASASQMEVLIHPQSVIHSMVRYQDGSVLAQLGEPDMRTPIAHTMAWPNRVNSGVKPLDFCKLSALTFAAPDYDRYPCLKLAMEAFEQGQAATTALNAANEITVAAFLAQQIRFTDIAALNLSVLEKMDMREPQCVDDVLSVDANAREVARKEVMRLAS
T2 sequence (P19111 20-533): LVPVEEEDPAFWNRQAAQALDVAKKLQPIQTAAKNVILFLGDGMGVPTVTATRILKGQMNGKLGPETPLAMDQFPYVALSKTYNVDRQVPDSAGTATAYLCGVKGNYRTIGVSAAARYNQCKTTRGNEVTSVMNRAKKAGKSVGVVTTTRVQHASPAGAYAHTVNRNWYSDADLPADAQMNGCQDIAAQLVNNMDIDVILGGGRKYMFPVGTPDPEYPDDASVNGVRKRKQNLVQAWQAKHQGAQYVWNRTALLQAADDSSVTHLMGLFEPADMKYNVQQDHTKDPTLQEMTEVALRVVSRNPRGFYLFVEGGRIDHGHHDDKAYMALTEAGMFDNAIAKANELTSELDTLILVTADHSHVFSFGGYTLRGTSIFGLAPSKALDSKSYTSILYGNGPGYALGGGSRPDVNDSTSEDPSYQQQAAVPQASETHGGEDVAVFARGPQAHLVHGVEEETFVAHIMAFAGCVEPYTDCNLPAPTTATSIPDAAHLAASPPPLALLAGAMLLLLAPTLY

Molecule	DLS Count Rate, with 4 μg/mL DXR ([1]; 4 μg/mL DXR)	DLS Count Rate, without DXR [1]	Concentration after incubation in the presence of 2 mM VC [4]	Concentration after incubation in the absence of 2 mM VC [4]	Ki (E. coli DXR [5]; [6])	Ki (E. coli DXR [5]; [7])	Kinetics (DXP) (E. coli DXR [5])	Kinetics (NADPH) (E. coli DXR [5])	Inhibition (%) Triton, lower concentration (E. coli DXR [2])	Inhibition (%) Triton, higher concentration (E. coli DXR [2])	IC50 (E. coli DXR [2]; 2% DMSO)	Inhibition (%) No Triton, lower concentration (E. coli DXR [2])	Inhibition (%) No Triton, higher concentration (E. coli DXR [2])	further results
O=c1cc(-c2ccccc2)oc2cc(O)c(O)c(O)c12 [Baicalein, baicalein, reference compound]	296 ± 19.7 KHz	2.6 ± 0.5 KHz	–	–	–	–	–	–	–	–	–	–	–	DLS Size, with 4 μg/mL DXR ([1]; 4 μg/mL DXR, baicalein 200 μM): 429.2 ± 84.7 nm; inhibition at 100 µM (E. coli DXR [2]; read-out: Inhibition (%) No Triton, higher concentration): 63.5 ± 2.9%; inhibition at 50 µM (E. coli DXR [2]; read-out: Inhibition (%) No Triton, lower concentration): 37.6 ± 4.7%; inhibition at 100 µM (E. coli DXR [2]; read-out: Inhibition (%) Triton, higher concentration): 6.5 ± 4.6%; inhibition at 50 µM (E. coli DXR [2]; read-out: Inhibition (%) Triton, lower concentration): 5.1 ± 3.9%
O=CN(O)CCCP(=O)(O)O [Fosmidomycin, fosmidomycin]	–	–	–	–	–	–	–	–	–	–	–	–	–	Bioavailability [3]: poor; Plasma half-life [3]: ~ 1 h; Inhibition of DXR activity (positive control) (E. coli DXR [2]; 1.0 μM): complete inhibition; Efficacy in treating malaria (clinical data) (Plasmodium falciparum): somewhat effective
O=C(O[C@@H]1Cc2c(O)cc(O)cc2O[C@@H]1c1cc(O)c(=O)c2c(O)c(O)cc([C@H]3Oc4cc(O)cc(O)c4C[C@H]3OC(=O)c3cc(O)c(O)c(O)c3)c2c1)c1cc(O)c(O)c(O)c1 [TF3,3′G, theaflavin-3,3′-digallate]	4.8 ± 0.4 KHz	2.2 ± 0.4 KHz	96.72 ± 2.78 µM	55.26 ± 4.32 µM	–	–	–	–	–	–	–	–	–	–
O=C(O[C@@H]1Cc2c(O)cc(O)cc2O[C@@H]1c1cc(O)c(O)c2c(=O)c(O)cc([C@H]3Oc4cc(O)cc(O)c4C[C@H]3O)cc12)c1cc(O)c(O)c(O)c1 [TF3G]	4.6 ± 0.5 KHz	2.6 ± 0.5 KHz	98.15 ± 2.86 µM	60.88 ± 2.77 µM	30.2 ± 2.6 µM	24.7 ± 3.2 µM	Noncompetitive	Uncompetitive	52.7 ± 2.4%	67.9 ± 3.4%	29.2 ± 2.6 µM	52.6 ± 3.2%	69.6 ± 2.7%	–
O=C(O[C@@H]1Cc2c(O)cc(O)cc2O[C@@H]1c1cc(O)c(=O)c2c(O)c(O)cc([C@H]3Oc4cc(O)cc(O)c4C[C@H]3O)c2c1)c1cc(O)c(O)c(O)c1 [TF3′G, theaflavin-3′-gallate]	5.2 ± 0.4 KHz	1.4 ± 0.5 KHz	98.08 ± 3.02 µM	61.17 ± 4.29 µM	22.2 ± 3.1 µM	22.4 ± 2.1 µM	Noncompetitive	Uncompetitive	42.5 ± 3.3%	70.7 ± 3.3%	23.7 ± 2.9 µM	41.3 ± 2.9%	70.3 ± 3.4%	–
O=c1c(O)cc([C@H]2Oc3cc(O)cc(O)c3C[C@H]2O)cc2c([C@H]3Oc4cc(O)cc(O)c4C[C@H]3O)cc(O)c(O)c12 [TF, theaflavin]	5.8 ± 0.4 KHz	2.2 ± 0.4 KHz	98.97 ± 3.27 µM	63.01 ± 3.73 µM	107 ± 3.9 µM	83.1 ± 4.3 µM	Noncompetitive	Uncompetitive	43.9 ± 3.6%	62.2 ± 2.9%	162 ± 3.6 µM	45.3 ± 3.4%	63.1 ± 2.4%	Inhibition against DXR at a single concentration (E. coli DXR [2]; approximately 150 μM, 2% DMSO, VC): approximately 40%
O=C1O[C@H]([C@@H](O)CO)C(O)=C1O [VC, ascorbic acid]	–	–	–	–	–	–	–	–	–	–	–	–	–	Effect on the activity of DXR (E. coli DXR [2]; 2 mM): no effect; Effect on the activity of AP (Calf intestine AP): no effect
Triton X-100	–	–	–	–	–	–	–	–	–	–	–	–	–	Effect on the activity of DXR (E. coli DXR [2]; 0.1%): no effect
